Assay results from ChEMBL document CHEMBL1201862, “PubChem BioAssay data set” (2004).
Activity calls are given as the source filed them.

Tests used:
Bcl-2-like protein 10 = molecular target: T1, Bcl-2-like protein 10 (Homo sapiens, UniProt Q9HD36); assay: displacers of TR3 peptide from Bcl-B, primary screen, selectivity assay for Bfl-1 inhibitor project, biochemical, fluorescence polarization, FITC-TR3 peptide (AID 748);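 note: fluorescence polarization from a fluorescein-labelled TR3 peptide binding purified Bcl-B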
T1 sequence (Q9HD36 whole entry): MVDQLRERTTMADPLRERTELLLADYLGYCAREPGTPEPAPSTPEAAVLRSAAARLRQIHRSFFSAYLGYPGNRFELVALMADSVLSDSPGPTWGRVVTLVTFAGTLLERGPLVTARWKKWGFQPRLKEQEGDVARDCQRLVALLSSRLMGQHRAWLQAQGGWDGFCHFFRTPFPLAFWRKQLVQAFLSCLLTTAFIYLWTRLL

Large T antigen = Large T antigen (Simian virus 40, UniProt P03070); type: functional, Betapolyomavirus macacae;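 note: Confirmatory-stage PubChem screen for compounds that inhibit SV40 T antigen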
Beta-galactosidase = Beta-galactosidase (Escherichia coli, UniProt Q8VNN2); assay: beta-galactosidase enzyme inhibitors and activators, dose response, artefact control for CCR6 antagonist project, biochemical, E. coli enzyme, set 3 (AID 504712); type: functional
Genome polyprotein = Genome polyprotein (dengue virus type 2, UniProt P29990); assay: Dengue-2 NS5 methyltransferase inhibitors, primary screen, biochemical, confirmation dose response (AID 588689); type: functional
[1] = molecular target: T2, Carboxy-terminal domain RNA polymerase II polypeptide A small phosphatase 1 (Homo sapiens, UniProt Q9GZU7); assay: inhibitors of CTDSP1, concentration-response testing, biochemical assay, absorbance-based, actives from ultra-high-throughput screening (AID 540297); type: functional
T2 sequence (Q9GZU7 whole entry): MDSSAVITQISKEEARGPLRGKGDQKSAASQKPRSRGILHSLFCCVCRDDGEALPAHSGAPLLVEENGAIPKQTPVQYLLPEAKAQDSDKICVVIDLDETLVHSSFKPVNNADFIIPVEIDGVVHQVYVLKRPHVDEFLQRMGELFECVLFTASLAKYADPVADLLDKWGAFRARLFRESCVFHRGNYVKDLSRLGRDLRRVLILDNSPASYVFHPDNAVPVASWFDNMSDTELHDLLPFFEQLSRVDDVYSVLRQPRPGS

[2] = insulin promoter down-regulators in MIN6 cells, imaging, high-content screening, mouse beta cells (AID 1628); type: functional
[3] = cytotoxicity in MIN6 insulinoma cells, dose response, cytotoxicity control, cell-based, mouse insulinoma (AID 2122); type: functional;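 note: confirmatory high-throughput counterscreen run to flag cytotoxic compounds; mouse MIN-6 beta cells carrying an insulin promoter eGFP reporter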
[4] = inhibitors of intracellular T. cruzi replication, confirmation, NIH3T3 host cells, beta-gal luminescence (AID 2044); type: functional, cell-based;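 note: intracellular parasites grown in NIH/3T3 mouse fibroblasts as host cells; luminescent beta-galactosidase reporter signal from transgenic T. cruzi replicating inside host cells; inhibitors lower the luminescence signal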
[5] = cytotoxicity toward NIH3T3 fibroblasts, dose response, counter-screen, cell-based, ATP luminescence, mouse fibroblasts (AID 2010); type: functional;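 note: cells exposed to compound for about 90 hours before reading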
[6] = molecular target: T3, RNA-binding protein pos-1 (Caenorhabditis elegans, UniProt G5EF15); assay: inhibitors of POS-1/mex-3 RNA binding, dose response, biochemical, fluorescence polarization (AID 1964);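 note: purified POS-1 fused to maltose binding protein made in E. coli; potency of compounds blocking POS-1 binding to fluorescent RNA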
T3 sequence (G5EF15 whole entry): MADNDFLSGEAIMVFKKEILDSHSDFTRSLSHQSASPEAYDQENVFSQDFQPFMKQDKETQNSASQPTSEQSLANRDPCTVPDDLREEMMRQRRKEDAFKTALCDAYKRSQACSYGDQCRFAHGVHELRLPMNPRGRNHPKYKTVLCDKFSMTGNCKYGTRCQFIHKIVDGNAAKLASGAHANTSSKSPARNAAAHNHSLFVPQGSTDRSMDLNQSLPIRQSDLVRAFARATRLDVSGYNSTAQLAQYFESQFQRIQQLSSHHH

[7] = molecular target: T4, Zinc finger protein mex-5 (Caenorhabditis elegans, UniProt Q9XUB2); assay: MEX-5/TCR-2 RNA interaction inhibitors, dose response, biochemical, C. elegans, fluorescence polarization (AID 1960)
T4 sequence (Q9XUB2 whole entry): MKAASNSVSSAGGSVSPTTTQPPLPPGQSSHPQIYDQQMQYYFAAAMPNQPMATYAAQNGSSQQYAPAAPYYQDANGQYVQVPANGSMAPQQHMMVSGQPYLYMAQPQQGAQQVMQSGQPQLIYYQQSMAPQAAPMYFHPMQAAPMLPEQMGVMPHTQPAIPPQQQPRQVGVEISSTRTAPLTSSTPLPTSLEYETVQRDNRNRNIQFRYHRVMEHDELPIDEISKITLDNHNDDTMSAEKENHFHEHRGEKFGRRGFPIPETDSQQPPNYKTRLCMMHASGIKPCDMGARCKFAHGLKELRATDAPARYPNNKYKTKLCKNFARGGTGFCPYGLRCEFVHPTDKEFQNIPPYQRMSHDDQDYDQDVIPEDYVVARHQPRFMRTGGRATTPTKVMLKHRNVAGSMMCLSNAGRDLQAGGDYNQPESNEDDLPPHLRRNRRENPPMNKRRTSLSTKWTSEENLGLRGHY

[8] = THP-1 cell cytotoxicity, dose response, cytotoxicity control for non-replicating M. tuberculosis project (AID 489025); type: functional
[9] = HepG2 cell cytotoxicity, dose response, cytotoxicity control for non-replicating M. tuberculosis project (AID 489018); type: functional; details: Mycobacterium tuberculosis
[10] = Vero E6 cell cytotoxicity, dose response, cytotoxicity control for non-replicating M. tuberculosis project, secondary assay (AID 492998); type: functional, VeroE6; details: Vero C1008
cells = type: functional
X-box-binding protein 1 = molecular target: T5, X-box-binding protein 1 (Homo sapiens, UniProt P17861); type: functional, Cricetulus griseus;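 note: confirmatory dose-response counter-screen serving a CHOP assay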
T5 sequence (P17861 whole entry): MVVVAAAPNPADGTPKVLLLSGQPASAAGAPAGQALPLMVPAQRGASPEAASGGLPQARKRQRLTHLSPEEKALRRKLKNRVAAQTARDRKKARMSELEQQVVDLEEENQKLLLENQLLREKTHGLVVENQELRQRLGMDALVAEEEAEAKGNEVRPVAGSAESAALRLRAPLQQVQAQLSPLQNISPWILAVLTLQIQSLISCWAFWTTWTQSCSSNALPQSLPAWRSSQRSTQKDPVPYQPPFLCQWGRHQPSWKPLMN

[11] = microbe, parasite or virus in culture; type: functional; details: Mycobacterium tuberculosis
[12] = molecular target: T6, Ubiquitin-conjugating enzyme E2 N (Homo sapiens, UniProt P61088); type: functional;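 note: Dose-response confirmation in a TR-FRET assay detecting UBC13-driven polyubiquitin chain formation, inhibition measured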
T6 sequence (P61088 whole entry): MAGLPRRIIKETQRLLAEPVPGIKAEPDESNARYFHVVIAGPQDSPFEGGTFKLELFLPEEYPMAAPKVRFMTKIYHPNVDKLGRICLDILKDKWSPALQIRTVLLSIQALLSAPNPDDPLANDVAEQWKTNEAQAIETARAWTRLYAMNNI

Escherichia coli = assay: microbe, parasite or virus in culture
[13] = molecular target: T7, Short transient receptor potential channel 4 (Mus musculus, UniProt Q9QUQ5); assay: mouse TRPC4 channel activators, dose response, cell-based, HEK293 TRPC4/mu-opioid, Fluo-4 calcium (AID 434937); type: functional
T7 sequence (Q9QUQ5 whole entry): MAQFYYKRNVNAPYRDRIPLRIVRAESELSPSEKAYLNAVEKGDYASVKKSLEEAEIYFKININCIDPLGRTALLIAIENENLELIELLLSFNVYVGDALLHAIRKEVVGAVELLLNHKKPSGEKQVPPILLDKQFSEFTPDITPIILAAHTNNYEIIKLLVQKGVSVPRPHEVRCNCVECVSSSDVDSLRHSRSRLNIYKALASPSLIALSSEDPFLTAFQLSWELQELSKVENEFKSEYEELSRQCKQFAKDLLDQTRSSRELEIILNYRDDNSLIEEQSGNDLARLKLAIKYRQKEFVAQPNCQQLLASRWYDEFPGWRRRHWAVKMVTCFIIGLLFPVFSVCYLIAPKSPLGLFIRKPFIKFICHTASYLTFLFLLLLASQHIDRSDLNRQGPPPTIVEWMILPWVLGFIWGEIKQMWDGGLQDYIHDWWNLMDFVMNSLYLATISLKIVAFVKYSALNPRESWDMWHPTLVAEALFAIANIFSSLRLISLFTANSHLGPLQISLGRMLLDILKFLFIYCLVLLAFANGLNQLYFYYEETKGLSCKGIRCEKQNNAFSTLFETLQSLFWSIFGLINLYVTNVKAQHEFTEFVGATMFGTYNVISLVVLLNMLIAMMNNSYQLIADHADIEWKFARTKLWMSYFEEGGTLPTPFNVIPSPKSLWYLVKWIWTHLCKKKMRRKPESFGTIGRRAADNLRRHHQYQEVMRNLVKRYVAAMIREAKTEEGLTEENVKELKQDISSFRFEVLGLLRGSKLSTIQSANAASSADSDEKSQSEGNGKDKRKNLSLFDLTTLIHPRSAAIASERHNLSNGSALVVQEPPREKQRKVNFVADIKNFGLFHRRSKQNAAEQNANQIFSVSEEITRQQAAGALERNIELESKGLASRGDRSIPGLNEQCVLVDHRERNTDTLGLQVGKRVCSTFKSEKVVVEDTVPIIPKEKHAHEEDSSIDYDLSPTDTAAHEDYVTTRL

[14] = molecular target: T7, Short transient receptor potential channel 4; assay: mouse TRPC4 channel inhibitors, dose response, cell-based, HEK293 TRPC4/mu-opioid, Fluo-4 calcium (AID 434942); type: functional;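 note: potency of inhibitors blocking the TRPC4 calcium response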
[15] = molecular target: Glucose-6-phosphate 1-dehydrogenase (Homo sapiens, UniProt P11413); assay: human G6PD enzyme inhibitors, dose response, selectivity assay for P. falciparum G6PD inhibitor project, biochemical, fluorescence (AID 504792); type: functional
[16] = NIH-3T3 fibroblast cytotoxicity, dose response, cytotoxicity control, cell-based, fluorescence, Alamar Blue, secondary assay (AID 2327); type: functional;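 note: NIH-3T3 mouse fibroblasts cultured with fluconazole at 8 µg/mL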
[17] = C. albicans growth with fluconazole, confirmation, fluorescence, retest (AID 2467); type: functional, cell-based
Protein skinhead-1 = molecular target: T8, Protein skinhead-1 (Caenorhabditis elegans, UniProt P34707); type: functional
T8 sequence (P34707 whole entry): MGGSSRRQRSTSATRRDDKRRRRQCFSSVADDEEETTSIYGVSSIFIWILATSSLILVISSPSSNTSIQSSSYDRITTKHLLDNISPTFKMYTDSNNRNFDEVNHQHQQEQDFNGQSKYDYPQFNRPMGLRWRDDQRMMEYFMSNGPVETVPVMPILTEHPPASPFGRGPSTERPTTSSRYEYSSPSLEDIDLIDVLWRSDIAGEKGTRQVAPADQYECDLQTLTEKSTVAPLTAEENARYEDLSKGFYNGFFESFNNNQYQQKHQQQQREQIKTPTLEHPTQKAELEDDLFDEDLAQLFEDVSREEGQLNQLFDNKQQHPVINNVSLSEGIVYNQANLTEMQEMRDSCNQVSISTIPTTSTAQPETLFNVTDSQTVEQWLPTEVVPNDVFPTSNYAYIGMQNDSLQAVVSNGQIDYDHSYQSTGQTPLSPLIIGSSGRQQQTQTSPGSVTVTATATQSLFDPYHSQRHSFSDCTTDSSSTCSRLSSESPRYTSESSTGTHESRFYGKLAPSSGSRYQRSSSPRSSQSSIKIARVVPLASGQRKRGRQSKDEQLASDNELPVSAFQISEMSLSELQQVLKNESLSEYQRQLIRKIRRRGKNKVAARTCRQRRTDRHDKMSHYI

Sequence of Glucose-6-phosphate 1-dehydrogenase (P11413 whole entry): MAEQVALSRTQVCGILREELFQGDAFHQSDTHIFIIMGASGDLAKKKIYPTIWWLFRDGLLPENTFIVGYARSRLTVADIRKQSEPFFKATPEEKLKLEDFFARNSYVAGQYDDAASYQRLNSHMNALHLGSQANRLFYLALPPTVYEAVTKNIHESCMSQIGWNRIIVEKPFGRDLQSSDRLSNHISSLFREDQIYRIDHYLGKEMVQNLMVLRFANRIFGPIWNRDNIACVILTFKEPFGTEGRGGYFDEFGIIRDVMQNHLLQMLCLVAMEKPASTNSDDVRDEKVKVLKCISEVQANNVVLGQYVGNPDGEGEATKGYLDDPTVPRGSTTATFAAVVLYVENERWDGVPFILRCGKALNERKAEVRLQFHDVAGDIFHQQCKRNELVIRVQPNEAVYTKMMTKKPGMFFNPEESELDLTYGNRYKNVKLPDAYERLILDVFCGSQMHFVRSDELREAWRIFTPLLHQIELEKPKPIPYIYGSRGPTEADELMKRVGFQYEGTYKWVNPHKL
Sequence of Large T antigen (P03070 whole entry): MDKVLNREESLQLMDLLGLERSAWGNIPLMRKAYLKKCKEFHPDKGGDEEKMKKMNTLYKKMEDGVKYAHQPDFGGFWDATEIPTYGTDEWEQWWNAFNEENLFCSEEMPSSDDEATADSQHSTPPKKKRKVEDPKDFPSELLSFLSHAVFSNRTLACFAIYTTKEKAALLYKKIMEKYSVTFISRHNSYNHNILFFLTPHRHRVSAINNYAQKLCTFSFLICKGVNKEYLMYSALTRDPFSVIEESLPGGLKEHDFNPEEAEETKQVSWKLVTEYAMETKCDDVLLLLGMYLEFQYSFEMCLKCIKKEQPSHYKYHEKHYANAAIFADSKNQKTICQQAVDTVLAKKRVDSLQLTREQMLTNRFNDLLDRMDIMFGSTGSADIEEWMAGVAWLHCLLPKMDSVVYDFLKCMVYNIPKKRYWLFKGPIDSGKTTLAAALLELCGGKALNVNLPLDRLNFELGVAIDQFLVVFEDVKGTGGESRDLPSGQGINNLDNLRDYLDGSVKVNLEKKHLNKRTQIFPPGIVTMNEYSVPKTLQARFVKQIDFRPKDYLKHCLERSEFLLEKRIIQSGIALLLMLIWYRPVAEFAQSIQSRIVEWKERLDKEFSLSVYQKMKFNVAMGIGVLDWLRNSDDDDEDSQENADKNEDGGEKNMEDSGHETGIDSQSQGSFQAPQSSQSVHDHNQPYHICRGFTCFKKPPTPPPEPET
Sequence of Beta-galactosidase (Q8VNN2 whole entry): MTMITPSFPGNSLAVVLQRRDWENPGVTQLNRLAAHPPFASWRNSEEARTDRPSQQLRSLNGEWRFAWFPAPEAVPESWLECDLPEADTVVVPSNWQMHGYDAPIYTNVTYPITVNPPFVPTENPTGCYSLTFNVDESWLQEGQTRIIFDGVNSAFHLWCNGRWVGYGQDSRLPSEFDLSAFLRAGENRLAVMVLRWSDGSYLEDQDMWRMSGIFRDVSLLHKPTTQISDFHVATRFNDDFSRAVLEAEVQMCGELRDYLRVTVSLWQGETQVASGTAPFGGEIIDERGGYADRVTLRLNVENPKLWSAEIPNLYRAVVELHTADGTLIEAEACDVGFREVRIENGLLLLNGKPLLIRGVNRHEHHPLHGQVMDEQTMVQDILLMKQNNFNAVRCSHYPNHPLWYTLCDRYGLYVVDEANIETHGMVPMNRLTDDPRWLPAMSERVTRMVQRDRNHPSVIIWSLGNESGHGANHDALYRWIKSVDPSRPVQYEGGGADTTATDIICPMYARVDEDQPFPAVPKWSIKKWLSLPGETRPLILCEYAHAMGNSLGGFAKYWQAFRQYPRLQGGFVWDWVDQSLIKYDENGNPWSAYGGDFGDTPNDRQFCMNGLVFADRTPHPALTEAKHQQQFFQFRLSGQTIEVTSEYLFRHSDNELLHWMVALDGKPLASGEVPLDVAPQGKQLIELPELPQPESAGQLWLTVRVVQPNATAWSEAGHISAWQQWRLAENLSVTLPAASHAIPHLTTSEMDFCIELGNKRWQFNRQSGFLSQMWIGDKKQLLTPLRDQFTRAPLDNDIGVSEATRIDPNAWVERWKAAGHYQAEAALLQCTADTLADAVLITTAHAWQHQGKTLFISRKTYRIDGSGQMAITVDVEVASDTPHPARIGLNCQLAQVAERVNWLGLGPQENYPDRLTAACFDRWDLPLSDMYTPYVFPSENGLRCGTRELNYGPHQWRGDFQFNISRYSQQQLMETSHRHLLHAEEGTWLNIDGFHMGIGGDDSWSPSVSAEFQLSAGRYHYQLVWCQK
Sequence of Genome polyprotein (P29990 2492-3391 limits assumed): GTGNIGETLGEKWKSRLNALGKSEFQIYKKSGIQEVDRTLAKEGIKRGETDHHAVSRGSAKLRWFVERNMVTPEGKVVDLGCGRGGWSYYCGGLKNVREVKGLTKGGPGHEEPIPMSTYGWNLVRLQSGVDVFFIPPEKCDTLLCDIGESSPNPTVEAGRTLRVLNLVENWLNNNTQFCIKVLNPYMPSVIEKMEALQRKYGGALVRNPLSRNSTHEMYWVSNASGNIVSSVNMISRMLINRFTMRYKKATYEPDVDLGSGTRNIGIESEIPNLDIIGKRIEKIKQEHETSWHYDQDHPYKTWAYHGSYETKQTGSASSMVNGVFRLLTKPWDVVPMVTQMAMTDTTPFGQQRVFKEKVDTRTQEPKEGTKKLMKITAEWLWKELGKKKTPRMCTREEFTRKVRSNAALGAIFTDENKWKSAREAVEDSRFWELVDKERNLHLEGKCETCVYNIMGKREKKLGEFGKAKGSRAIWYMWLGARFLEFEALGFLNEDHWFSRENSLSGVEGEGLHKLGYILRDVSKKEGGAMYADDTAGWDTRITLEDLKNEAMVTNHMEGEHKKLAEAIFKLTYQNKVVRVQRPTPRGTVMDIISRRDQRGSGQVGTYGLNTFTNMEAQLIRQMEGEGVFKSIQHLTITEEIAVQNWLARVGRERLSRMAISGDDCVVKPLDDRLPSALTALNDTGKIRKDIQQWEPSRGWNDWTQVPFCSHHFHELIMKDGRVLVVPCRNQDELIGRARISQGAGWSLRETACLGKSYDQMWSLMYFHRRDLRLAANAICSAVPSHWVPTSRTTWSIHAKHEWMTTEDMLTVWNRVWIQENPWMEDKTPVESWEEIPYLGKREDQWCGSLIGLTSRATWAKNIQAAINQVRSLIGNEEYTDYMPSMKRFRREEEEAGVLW

SMILES: O=c1c2cc(N3CCOCC3)ccc2[nH]c(=S)n1CCCN1CCCCCC1
- IC50 (Bcl-2-like protein 10): 88 µM (inactive)

SMILES: Nc1ccc(OCC(O)C[n+]2ccc(CCS(=O)(=O)[O-])cc2)cc1 (stereo unspecified)
- IC50 (Large T antigen): 17.9 µM (active)

SMILES: O=C(CN1C(=O)/C(=C2/SC(=S)N(CCS(=O)(=O)O)C2=O)c2ccccc21)Nc1cccc(C(F)(F)F)c1
- IC50 (Beta-galactosidase): > 66.6 µM (inactive)
- IC50 (Genome polyprotein): 35.3 µM (active)
- IC50 [1]: 2.41 µM (active)

SMILES: COc1cccc(CNC(=O)CN2CCC(c3nc4cc(C)ccc4[nH]3)CC2)c1
- IC50 [2]: 2 µM (active)
- IC50 [3]: 15 µM (inactive)
- EC50 [4]: 0.217 µM (active)
- EC50 [5]: > 60 µM (not active)

SMILES: C=CCn1c(SCc2cc(=O)n3ccsc3n2)nnc1C1CCCCC1
- IC50 (Bcl-2-like protein 10): 61.5 µM (inactive)

SMILES: Cc1cnc(C(=O)NNC(=O)c2ccc(Br)cc2)cn1
- EC50 [6]: > 300 µM (not active)
- EC50 [7]: 9.68 µM (active)
- CC50 [8]: 26.3 µM (active)
- CC50 [9]: > 20 µM (active)
- CC50 [10]: 14.6 µM (active)
- IC50 (cells): 23.2 µM (active)

SMILES: CC1=CC(C)(C)N(C(=O)c2ccc(F)cc2)c2cc3c(cc21)OCO3
- Absolute IC50 (XBP1) (X-box-binding protein 1): 10 µM

SMILES: COC(=O)c1c(N=C(S)NN2CCN(C)CC2)sc2c1CCC(C)C2 (stereo unspecified)
- IC50 [2]: 4.04 µM (active)
- IC50 [3]: 3.07 µM (active)
- CC50 [11]: 11.6 µM (active)
- IC50 [12]: > 20 µM (inactive)

SMILES: COc1ccc(Nc2nc(NCCO)nc(OC)n2)cc1
- AC50 (Escherichia coli): 25.5 µM (active)

SMILES: CCCN1CCN(C(=O)Cn2c(=O)oc3cc(S(=O)(=O)NCc4ccccc4)ccc32)CC1
- EC50 [13]: 4.22 µM (active)

SMILES: CN(C)C(CNC(=O)c1ccc2c(c1)S(=O)(=O)c1ccccc1C2=O)c1ccco1 (stereo unspecified)
- EC50 [14]: 4.73 µM (active)
- EC50 [13]: 0.668 µM (active)

SMILES: CCOC(=O)CSc1nnc(NC(=O)c2cccc([N+](=O)[O-])c2)s1
- IC50 [15]: 43.8 µM (inactive)

SMILES: CCN(CC)Cc1ccc(NC(=O)c2sc3cc(Cl)ccc3c2Cl)cc1
- EC50 [16]: 16.8 µM (inconclusive)
- EC50 [17]: 3.87 µM (active)
- CC50 [8]: 19.9 µM (active)
- CC50 [9]: 11.7 µM (active)
- CC50 [10]: 18.9 µM (active)
- IC50 (cells): 32.9 µM (active)
- IC50 (Protein skinhead-1): 26.3 µM (active)

SMILES: COc1cc(NCCCn2cnc(C(=O)Nc3ccc(C)c(C)c3)n2)cc(OC)c1OC
- IC50 [15]: > 80 µM (inactive)

SMILES: O=[N+]([O-])c1ccc(-c2nn(-c3ccccc3)cc2/C=N/n2c(S)nnc2-c2cccs2)cc1
- Absolute IC50 (XBP1) (X-box-binding protein 1): 10 µM

SMILES: C/C(=N/NC(=S)Nc1ccccc1)c1ccc2c(c1)OCO2
- IC50 (Beta-galactosidase): > 66.6 µM (inactive)

SMILES: C/C(=N\Nc1nc2ccccc2[nH]1)c1cc2ccccc2o1
- CC50 [8]: > 40 µM (active)
- CC50 [10]: > 20 µM (active)
- IC50 (cells): 1.28 µM (active)

SMILES: COc1cc(/C=N/NC(=O)NC2CCCCC2)ccc1O
- IC50 (Large T antigen): 7.16 µM (active)

SMILES: Cc1ccc(-c2c(C(=O)N/N=C/c3cccs3)nnn2-c2nonc2N)cc1
- IC50 [15]: > 80 µM (inactive)
